Tests used:
[1] = molecular target: DNA-dependent RNA polymerase from E. coli (Escherichia coli, UniProt P0A8T7+P0A8V2); assay: DNA-dependent RNA polymerase reaction, 3H-UTP incorporation; format: biochemical
Procedure: (§1) Inhibition of HIV reverse transcriptase (RT) was studied in a one milliliter reaction mixture containing 12.5 μmol Tris-HCl (pH 8.3), 3 μmol MgCl2, 10 μmol KCl, 2.5 μmol dithiothreitol, 0.04 μmol of each dNTP, 1 μCi ^3H-TTP (50 Ci/mmol), 10 μl of DMSO containing 0-320 μg/ml of 9-O-methyl oxime erythromycin A (EMO), and 0.01 μg HIV-1 reverse transcriptase. DNA template (0.01 μg) from calf thymus was used as the substrate in the reaction. After 60 minutes incubation at 37° C., samples from the reaction were pipetted on 3 MM filter paper discs (Whatman), which were washed 5 times in cold trichloroacetic acid (5%) containing sodium pyrophosphate (0.01 M). After drying, the discs were counted in a toluene scintillation solution using a Beckman scintillation spectrometer. Reactions with DNA-dependent DNA polymerase (DNA pol I, GibcoBRL) or DNA-dependent RNA polymerase from E. coli were carried out as described above, except that ^3H-UTP replaced ^3H-TTP where appropriate.

[2] = molecular target: T1, DNA-dependent DNA polymerase (DNA pol I, GibcoBRL) (Escherichia coli, UniProt P00582); assay: DNA-dependent DNA polymerase reaction, radiolabel incorporation; format: biochemical, E. coli
T1 construct: purchased GibcoBRL
T1 sequence (P00582 whole entry): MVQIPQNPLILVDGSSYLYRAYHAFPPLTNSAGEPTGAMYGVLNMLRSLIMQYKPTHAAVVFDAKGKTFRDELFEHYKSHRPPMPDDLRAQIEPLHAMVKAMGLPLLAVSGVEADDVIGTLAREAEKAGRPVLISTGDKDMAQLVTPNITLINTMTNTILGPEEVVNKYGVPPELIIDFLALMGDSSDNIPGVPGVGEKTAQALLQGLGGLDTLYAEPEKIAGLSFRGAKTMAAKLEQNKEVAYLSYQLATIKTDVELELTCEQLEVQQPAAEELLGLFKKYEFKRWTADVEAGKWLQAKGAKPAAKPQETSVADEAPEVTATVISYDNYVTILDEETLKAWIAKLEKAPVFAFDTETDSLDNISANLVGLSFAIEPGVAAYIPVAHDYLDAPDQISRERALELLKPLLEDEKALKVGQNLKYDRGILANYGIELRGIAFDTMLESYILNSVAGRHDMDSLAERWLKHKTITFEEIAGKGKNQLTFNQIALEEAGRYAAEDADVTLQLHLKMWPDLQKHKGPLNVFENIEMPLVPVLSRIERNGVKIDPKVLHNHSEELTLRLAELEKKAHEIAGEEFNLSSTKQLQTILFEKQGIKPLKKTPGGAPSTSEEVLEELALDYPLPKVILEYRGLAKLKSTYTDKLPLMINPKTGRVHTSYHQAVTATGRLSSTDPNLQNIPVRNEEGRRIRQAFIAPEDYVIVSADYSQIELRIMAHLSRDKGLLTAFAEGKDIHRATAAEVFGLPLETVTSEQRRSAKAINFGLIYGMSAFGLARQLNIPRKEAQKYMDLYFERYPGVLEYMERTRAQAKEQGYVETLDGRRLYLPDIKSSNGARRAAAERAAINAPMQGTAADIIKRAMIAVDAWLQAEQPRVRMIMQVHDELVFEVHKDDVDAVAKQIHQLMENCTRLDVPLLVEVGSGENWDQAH
Procedure: as §1

[3] = molecular target: T2, HIV-1 reverse transcriptase (Human immunodeficiency virus type 1 group M subtype B, UniProt P04585); assay: Inhibition of HIV reverse transcriptase, 3H-TTP incorporation on calf thymus DNA template; format: biochemical; conditions: for HIV RT Radioactivity: 60 minutes at 37° C.
T2 construct: 0.01 μg HIV-1 reverse transcriptase
Procedure: as §1

[4] = gastric acid; stated without a test; cited from earlier work

DNA-dependent RNA polymerase from E. coli, sequence (P0A8V2 whole entry): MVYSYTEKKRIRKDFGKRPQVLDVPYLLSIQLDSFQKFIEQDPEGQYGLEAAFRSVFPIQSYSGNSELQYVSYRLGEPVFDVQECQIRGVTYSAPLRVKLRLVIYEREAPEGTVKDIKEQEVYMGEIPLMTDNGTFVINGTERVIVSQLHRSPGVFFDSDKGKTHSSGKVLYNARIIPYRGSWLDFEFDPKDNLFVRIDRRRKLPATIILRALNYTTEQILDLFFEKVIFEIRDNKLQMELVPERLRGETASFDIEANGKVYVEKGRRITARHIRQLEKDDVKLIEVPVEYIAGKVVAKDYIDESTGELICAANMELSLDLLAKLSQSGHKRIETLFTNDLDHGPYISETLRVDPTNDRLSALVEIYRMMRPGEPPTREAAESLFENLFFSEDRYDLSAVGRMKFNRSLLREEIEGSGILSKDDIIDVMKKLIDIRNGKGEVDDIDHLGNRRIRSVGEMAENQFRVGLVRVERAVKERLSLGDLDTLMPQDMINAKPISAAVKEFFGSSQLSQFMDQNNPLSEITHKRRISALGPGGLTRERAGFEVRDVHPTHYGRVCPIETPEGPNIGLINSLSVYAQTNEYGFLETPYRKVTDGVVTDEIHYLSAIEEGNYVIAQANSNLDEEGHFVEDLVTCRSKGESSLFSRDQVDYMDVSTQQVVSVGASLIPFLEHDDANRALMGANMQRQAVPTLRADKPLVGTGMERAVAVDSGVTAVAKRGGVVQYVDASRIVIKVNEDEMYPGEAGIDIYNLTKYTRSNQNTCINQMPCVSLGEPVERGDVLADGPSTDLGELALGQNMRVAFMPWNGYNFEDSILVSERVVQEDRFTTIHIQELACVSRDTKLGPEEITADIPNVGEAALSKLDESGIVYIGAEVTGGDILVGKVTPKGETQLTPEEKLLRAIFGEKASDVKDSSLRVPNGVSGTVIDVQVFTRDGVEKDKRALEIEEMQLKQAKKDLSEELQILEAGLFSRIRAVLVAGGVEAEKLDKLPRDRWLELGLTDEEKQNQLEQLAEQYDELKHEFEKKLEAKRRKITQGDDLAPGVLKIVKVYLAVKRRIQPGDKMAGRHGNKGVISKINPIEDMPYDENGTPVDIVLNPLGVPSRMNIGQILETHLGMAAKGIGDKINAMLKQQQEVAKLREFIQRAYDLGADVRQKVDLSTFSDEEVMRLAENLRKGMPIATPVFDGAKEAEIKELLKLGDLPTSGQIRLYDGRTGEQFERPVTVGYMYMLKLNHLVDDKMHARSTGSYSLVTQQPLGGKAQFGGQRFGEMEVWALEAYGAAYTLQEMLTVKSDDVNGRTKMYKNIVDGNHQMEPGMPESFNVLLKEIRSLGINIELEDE
DNA-dependent RNA polymerase from E. coli, sequence (P0A7Z4 whole entry, further chain): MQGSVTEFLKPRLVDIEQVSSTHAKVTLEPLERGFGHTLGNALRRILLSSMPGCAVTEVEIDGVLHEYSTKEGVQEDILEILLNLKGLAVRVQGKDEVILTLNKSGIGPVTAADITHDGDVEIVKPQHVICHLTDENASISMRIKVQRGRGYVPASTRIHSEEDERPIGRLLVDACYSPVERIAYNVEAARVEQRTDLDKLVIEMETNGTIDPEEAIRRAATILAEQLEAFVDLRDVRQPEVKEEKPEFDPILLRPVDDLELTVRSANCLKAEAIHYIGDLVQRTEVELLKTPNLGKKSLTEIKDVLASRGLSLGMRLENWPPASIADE
DNA-dependent RNA polymerase from E. coli, sequence (P0A800 whole entry, further chain): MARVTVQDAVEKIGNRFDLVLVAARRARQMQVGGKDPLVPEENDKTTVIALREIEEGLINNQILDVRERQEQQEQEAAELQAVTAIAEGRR
DNA-dependent RNA polymerase from E. coli, sequence (P0A8T7 whole entry): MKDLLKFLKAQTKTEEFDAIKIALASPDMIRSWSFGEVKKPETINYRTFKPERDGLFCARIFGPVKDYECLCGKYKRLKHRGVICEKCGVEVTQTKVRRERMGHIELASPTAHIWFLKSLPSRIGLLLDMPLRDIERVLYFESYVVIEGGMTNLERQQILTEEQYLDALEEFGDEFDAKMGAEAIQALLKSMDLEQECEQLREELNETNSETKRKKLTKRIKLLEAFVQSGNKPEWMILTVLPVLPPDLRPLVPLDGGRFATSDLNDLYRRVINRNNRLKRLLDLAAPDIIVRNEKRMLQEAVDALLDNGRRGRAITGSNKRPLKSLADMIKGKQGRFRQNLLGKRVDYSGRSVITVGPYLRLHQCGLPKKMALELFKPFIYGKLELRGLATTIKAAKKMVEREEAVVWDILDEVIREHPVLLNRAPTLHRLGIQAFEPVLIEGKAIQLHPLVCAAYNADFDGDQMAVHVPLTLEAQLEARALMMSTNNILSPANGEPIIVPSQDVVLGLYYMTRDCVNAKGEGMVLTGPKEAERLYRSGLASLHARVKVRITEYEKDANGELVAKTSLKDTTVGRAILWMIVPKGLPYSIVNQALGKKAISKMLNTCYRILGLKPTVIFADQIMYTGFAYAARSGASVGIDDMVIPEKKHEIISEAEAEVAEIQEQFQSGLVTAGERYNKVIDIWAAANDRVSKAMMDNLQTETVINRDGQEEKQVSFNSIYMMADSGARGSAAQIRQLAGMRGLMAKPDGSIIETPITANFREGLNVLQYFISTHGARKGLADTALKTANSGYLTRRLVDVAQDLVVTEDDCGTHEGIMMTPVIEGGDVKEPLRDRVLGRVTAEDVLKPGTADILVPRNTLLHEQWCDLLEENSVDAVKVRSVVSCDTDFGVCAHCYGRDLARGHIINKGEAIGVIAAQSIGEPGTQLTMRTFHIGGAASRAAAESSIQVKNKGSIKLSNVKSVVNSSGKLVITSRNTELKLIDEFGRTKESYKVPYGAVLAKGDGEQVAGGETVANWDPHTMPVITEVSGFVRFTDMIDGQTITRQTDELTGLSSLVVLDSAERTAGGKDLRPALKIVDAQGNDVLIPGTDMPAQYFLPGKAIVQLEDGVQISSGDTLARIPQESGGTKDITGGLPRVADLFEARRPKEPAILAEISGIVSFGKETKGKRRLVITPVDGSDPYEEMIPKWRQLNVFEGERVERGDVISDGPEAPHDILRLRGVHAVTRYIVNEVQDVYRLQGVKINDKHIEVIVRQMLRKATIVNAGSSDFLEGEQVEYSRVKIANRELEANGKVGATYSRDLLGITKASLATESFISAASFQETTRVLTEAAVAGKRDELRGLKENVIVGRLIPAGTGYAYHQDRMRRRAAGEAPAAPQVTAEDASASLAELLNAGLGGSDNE

Structure (SMILES): CC[C@H]1OC(=O)[C@H](C)[C@@H](O[C@H]2C[C@@](C)(OC)[C@@H](O)[C@H](C)O2)[C@H](C)[C@@H](O[C@@H]2O[C@H](C)C[C@H](N(C)C)[C@H]2O)[C@](C)(O)C[C@@H](C)/C(=N\OC)[C@H](C)[C@@H](O)[C@]1(C)O [EMO, 9-O-methyl oxime erythromycin A]
- DNA-dependent RNA polymerase % Inhibition ([1]; [EMO] 80 μg/ml): −0.2%
- DNA-dependent RNA polymerase Radioactivity ([1]; [EMO] 80 μg/ml): 33,000 cpm
- DNA-dependent RNA polymerase % Inhibition ([1]; [EMO] 160 μg/ml): −1%
- DNA-dependent RNA polymerase Radioactivity ([1]; [EMO] 160 μg/ml): 32,800 cpm
- DNA-dependent RNA polymerase % Inhibition ([1]; [EMO] 320 μg/ml): 0.5%
- DNA-dependent RNA polymerase Radioactivity ([1]; [EMO] 320 μg/ml): 32,400 cpm
- DNA-dependent DNA polymerase % Inhibition ([2]; [EMO] 80 μg/ml): −2%
- DNA-dependent DNA polymerase Radioactivity ([2]; [EMO] 80 μg/ml): 12,800 cpm
- DNA-dependent DNA polymerase % Inhibition ([2]; [EMO] 160 μg/ml): 1%
- DNA-dependent DNA polymerase Radioactivity ([2]; [EMO] 160 μg/ml): 12,400 cpm
- DNA-dependent DNA polymerase % Inhibition ([2]; [EMO] 320 μg/ml): 0%
- DNA-dependent DNA polymerase Radioactivity ([2]; [EMO] 320 μg/ml): 12,600 cpm
- HIV RT % Inhibition ([3]; [EMO] 20 μg/ml): 0.8%
- HIV RT Radioactivity ([3]; [EMO] 20 μg/ml): 8490 cpm
- HIV RT % Inhibition ([3]; [EMO] 40 μg/ml): −0.5%
- HIV RT Radioactivity ([3]; [EMO] 40 μg/ml): 8600 cpm
- HIV RT % Inhibition ([3]; [EMO] 80 μg/ml): 20%
- HIV RT Radioactivity ([3]; [EMO] 80 μg/ml): 6850 cpm
- HIV RT % Inhibition ([3]; [EMO] 160 μg/ml): 81%
- HIV RT Radioactivity ([3]; [EMO] 160 μg/ml): 1625 cpm
- HIV RT % Inhibition ([3]; [EMO] 320 μg/ml): 85%
- HIV RT Radioactivity ([3]; [EMO] 320 μg/ml): 1287 cpm

Structure (SMILES): CC[C@H]1OC(=O)[C@H](C)[C@@H](O[C@H]2C[C@@](C)(OC)[C@@H](O)[C@H](C)O2)[C@H](C)[C@@H](O[C@@H]2O[C@H](C)C[C@H](N(C)C)[C@H]2O)[C@](C)(O)C[C@@H](C)C(=O)[C@H](C)[C@@H](O)[C@]1(C)O [Erythromycin A, erythromycin A]
- acid stability [4]: acid labile
